Laboratory results published in US20220324865A1 (Bayer Aktiengesellschaft, priority 2018, published 2022).
pIC50: −log10 of the molar value.

target: T1, human EP3 receptor (Homo sapiens, UniProt P43115); experiment: Cellular in vitro assay for determining EP3 receptor activity (human EP3 cell line, sulprostone-stimulated calcium luminescence); format: cell-based; details: CHO cells expressing human EP3 and mitochondrial Clytin; antagonist mode, sulprostone at EC50; read-out: EP3 CHO mtCLY ANTAG IC50
T1 construct: expressed in transfected cells; host or cells: CHO K1 (Chinese Hamster Ovary), stably co-transfected with Galpha16 and mitochondrial clytin
T1 sequence (P43115 1-390): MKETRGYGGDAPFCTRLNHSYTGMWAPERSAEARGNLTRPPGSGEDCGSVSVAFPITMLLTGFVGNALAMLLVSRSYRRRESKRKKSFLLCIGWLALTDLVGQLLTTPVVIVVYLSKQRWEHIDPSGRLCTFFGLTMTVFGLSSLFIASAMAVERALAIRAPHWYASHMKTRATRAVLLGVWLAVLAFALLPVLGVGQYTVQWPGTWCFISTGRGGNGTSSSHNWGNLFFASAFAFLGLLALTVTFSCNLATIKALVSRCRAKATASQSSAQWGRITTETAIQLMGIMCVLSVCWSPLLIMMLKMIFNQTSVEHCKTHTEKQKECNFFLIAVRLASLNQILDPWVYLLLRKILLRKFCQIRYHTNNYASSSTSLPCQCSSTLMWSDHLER
Outline: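 Antagonist activity was measured as inhibition of the luminescent calcium signal elicited by EC50 sulprostone, following 10 min compound pretreatment. The cell line was recombinant CHO K1 co-expressing human EP3, Gα16 and the photoprotein Clytin, reconstituted with coelenterazine.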

SMILES	pIC50
CC(C)(O)[C@@H](NC(=O)c1nn2cc(-c3ccc(Cl)c(Cl)c3)[nH]c(=O)c2c1C1CCC1)c1ccc(F)cc1 [6-568]	8.98
O=C(N[C@@H](c1ccc(F)cc1)C(F)(F)CO)c1nn2cc(-c3ccc(Cl)c(F)c3)[nH]c(=O)c2c1C1CCC1 [6-571]	8.82
CC(C)(O)[C@@H](NC(=O)c1nn2cc(-c3ccc(Cl)c(F)c3)[nH]c(=O)c2c1C1CCC1)c1ccc(F)cc1 [6-572]	8.55
Cc1ccc(-c2cn3nc(C(=O)N[C@@H](c4ccc(F)cc4)C(C)(C)O)c(C4CCC4)c3c(=O)[nH]2)cc1F [6-573]	8.90
Cc1ccc(-c2cn3nc(C(=O)NC4(c5ccc(F)cc5)CN(C)C4)c(C4CCC4)c3c(=O)[nH]2)cc1F [6-574]	8.82
Cc1ccc(-c2cn3nc(C(=O)N[C@H](C)CO)c(C4CCC4)c3c(=O)[nH]2)cc1F [6-575]	8.71
Cc1ncc(-c2cn3nc(C(=O)N[C@@H](c4ccc(F)cc4)C(C)(C)O)c(C4CC4)c3c(=O)[nH]2)cc1Cl [6-579]	9.07
C[C@H](NC(=O)c1nn2cc(-c3cc(Cl)c(Cl)cc3F)[nH]c(=O)c2c1C1CC1)C1CC1 [6-581]	8.80
O=C(N[C@@H](c1ccc(F)cc1)C(F)(F)CO)c1nn2cc(-c3cc(Cl)c(Cl)cc3F)[nH]c(=O)c2c1C1CC1 [6-582]	8.58
CC(C)(O)[C@@H](NC(=O)c1nn2cc(-c3cc(Cl)c(Cl)cc3F)[nH]c(=O)c2c1C1CC1)c1ccc(F)cc1 [6-583]	9.20
CC(C)(O)[C@@H](NC(=O)c1nn2cc(-c3cc(F)c(Cl)cc3F)[nH]c(=O)c2c1C1CC1)c1ccc(F)cc1 [6-584]	8.13
O=C(N[C@@H](c1ccc(F)cc1)C(F)(F)CO)c1nn2cc(-c3cc(F)c(Cl)cc3F)[nH]c(=O)c2c1C1CC1 [6-585]	8.52
CC(C)(O)[C@@H](NC(=O)c1nn2cc(-c3ccc(C(F)(F)F)c(F)c3)[nH]c(=O)c2c1C1CC1)c1ccc(F)cc1 [6-588]	8.25
Cc1nc(-c2cn3nc(C(=O)N[C@@H](c4ccc(F)cc4)C(C)(C)O)c(C4CC4)c3c(=O)[nH]2)ccc1Cl [6-590]	8.92
CC(C)(O)[C@@H](NC(=O)c1nn2cc(-c3ccc(Cl)c(OC(F)(F)F)c3)[nH]c(=O)c2c1C1CC1)c1ccc(F)cc1 [6-592]	8.73
Cc1cc(-c2cn3nc(C(=O)NC4(c5ccc(F)cc5)CN(C)C4)c(C4CC4)c3c(=O)[nH]2)c(F)cc1Cl [6-593]	8.07
Cc1ccc(-c2cn3nc(C(=O)N[C@@H](c4ccc(F)cc4)C(C)(C)O)c(C4CC4)c3c(=O)[nH]2)c(F)c1F [6-596]	8.55
CC(C)(O)[C@@H](NC(=O)c1nn2cc(-c3ccc(C(F)(F)F)c(Cl)c3)[nH]c(=O)c2c1C1CC1)c1ccc(F)cc1 [6-598]	8.63
Cn1cnc2cc(-c3cn4nc(C(=O)N[C@@H](c5ccc(F)cc5)C(C)(C)O)c(C5CC5)c4c(=O)[nH]3)ccc21 [6-599]	8.68
COC[C@@H](NC(=O)c1nn2cc(-c3ccc4c(c3)ncn4C)[nH]c(=O)c2c1C1CC1)c1ccccc1 [6-600]	8.64
CC(C)(O)[C@@H](NC(=O)c1nn2cc(-c3ccc(C(F)(F)F)c(F)c3F)[nH]c(=O)c2c1C1CC1)c1ccc(F)cc1 [6-602]	8.25
Cc1c(C(=O)N[C@@H](c2ccc(F)cc2)C(C)(C)O)nn2c(C)c(-c3ccc4ccccc4c3)[nH]c(=O)c12 [6-604]	8.73
Cc1cc(-c2cn3nc(C(=O)N[C@@H](c4ccc(F)cc4)C(F)(F)CO)c(C(C)C)c3c(=O)[nH]2)ccc1Cl [6-605]	8.42
Cc1cc(-c2cn3nc(C(=O)NC4(c5ccc(F)cc5)CN(C)C4)c(C(C)C)c3c(=O)[nH]2)ccc1Cl [6-607]	8.53
CC[C@@H](C)NC(=O)c1cc2c(=O)[nH]c(-c3ccc(C)c(C4CC4)c3)cn2n1 [6-613]	8.44
CCCc1c(C(=O)N[C@H](C)c2ccc(F)cc2)nn2cc(-c3ccc(C)c(C)c3)[nH]c(=O)c12 [6-614]	9.09
CCCc1c(C(=O)NC2(c3ccc(F)cc3)CN(C)C2)nn2cc(-c3ccc(C)c(C)c3)[nH]c(=O)c12 [6-616]	9.11
Cc1cc(-c2cn3nc(C(=O)N[C@@H](C)C4CC4)c(C4CCC4)c3c(=O)[nH]2)ccc1Cl [6-618]	9.00
Cc1cc(-c2cn3nc(C(=O)N[C@@H](c4ccc(F)cc4)C(C)(C)O)c(C4CCC4)c3c(=O)[nH]2)ccc1Cl [6-620]	8.82
COCc1c(C(=O)N[C@@H](c2ccc(F)cc2)C(F)(F)CO)nn2cc(-c3ccc(Cl)c(F)c3)[nH]c(=O)c12 [6-624]	8.17

Continued by rising pIC50, values first:

pIC50	SMILES
8.12	Cc1ccc(-c2[nH]c(=O)c3c(C4CC4)c(C(=O)N[C@@H](c4ccc(F)cc4)C(C)(C)O)nn3c2C#N)cc1C [6-617]
8.37	O=C(N[C@@H](c1ccc(F)cc1)C(F)(F)CO)c1nn2cc(-c3ccc(C(F)(F)F)c(F)c3F)[nH]c(=O)c2c1C1CC1 [6-601]
8.43	Cc1ccc(-c2cn3nc(C(=O)N[C@@H](C)CO)c(C4CCC4)c3c(=O)[nH]2)cc1F [6-576]
8.50	COCc1c(C(=O)N[C@@H](c2ccc(F)cc2)C(C)(C)O)nn2cc(-c3ccc(Cl)c(C)c3)[nH]c(=O)c12 [6-623]
8.57	Cc1ccc(-c2cn3nc(C(=O)N[C@@H](c4ccc(F)cc4)C(C)(C)O)c(C4CCC4)c3c(=O)[nH]2)cc1C [6-577]
8.60	O=C(N[C@@H](c1ccc(F)cc1)C(F)(F)CO)c1nn2cc(-c3ccc(Cl)c(Cl)c3)[nH]c(=O)c2c1C1CCC1 [6-567]
8.64	Cc1ccc(-c2cn3nc(C(=O)N[C@@H](C)CO)c(C4CCC4)c3c(=O)[nH]2)cc1C [6-578]
8.64	Cc1cc(-c2cn3nc(C(=O)N[C@@H](c4ccc(F)cc4)C(C)(C)O)c(C(C)C)c3c(=O)[nH]2)ccc1Cl [6-606]
8.65	C[C@H](NC(=O)c1nn2cc(-c3ccc(Cl)c(F)c3)[nH]c(=O)c2c1C1CC1(F)F)C1CC1 (some centres unmarked) [6-566]
8.72	Cc1cc(-c2cn3nc(C(=O)N[C@@H](C)C4CC4)c(C(C)C)c3c(=O)[nH]2)ccc1Cl [6-608]
8.82	Cc1cc(-c2cn3nc(C(=O)N[C@H](C)C4CC4)c(C(C)C)c3c(=O)[nH]2)ccc1Cl [6-609]
8.84	C[C@H](NC(=O)c1nn2cc(-c3ccc(Cl)c(Cl)c3)[nH]c(=O)c2c1C1CCC1)C1CC1 [6-569]
8.87	COc1ccc(-c2cn3nc(C(=O)N[C@@H](c4ccc(F)cc4)C(F)(F)CO)c(C4CC4)c3c(=O)[nH]2)cc1F [6-586]
8.89	C[C@H](NC(=O)c1nn2cc(-c3ccc(Cl)c(F)c3)[nH]c(=O)c2c1C1CCC1)C1CC1 [6-570]
8.89	Cc1nc(-c2cn3nc(C(=O)N[C@@H](c4ccc(F)cc4)C(F)(F)CO)c(C4CC4)c3c(=O)[nH]2)ccc1Cl [6-591]
8.90	COCc1c(C(=O)N[C@@H](C)C2CC2)nn2cc(-c3ccc(Cl)c(C)c3)[nH]c(=O)c12 [6-622]
8.94	Cc1cc(-c2cn3nc(C(=O)N[C@@H](c4ccc(F)cc4)C(F)(F)CO)c(C4CCC4)c3c(=O)[nH]2)ccc1Cl [6-619]
8.94	COCc1c(C(=O)N[C@@H](c2ccc(F)cc2)C(F)(F)CO)nn2cc(-c3ccc(Cl)c(C)c3)[nH]c(=O)c12 [6-621]
9.08	COc1ccc(-c2cn3nc(C(=O)N[C@@H](c4ccc(F)cc4)C(C)(C)O)c(C4CC4)c3c(=O)[nH]2)cc1F [6-587]
9.34	Cc1cc(-c2cn3nc(C(=O)N[C@@H](c4ccc(F)cc4)C(C)(C)O)c(C4CC4)c3c(=O)[nH]2)c(F)cc1Cl [6-594]
